ChEMBL document CHEMBL4002587 (Eur J Med Chem, 2017)

Columns and labels:
Prothrombin = Prothrombin (Homo sapiens, UniProt P00734); test: Inhibition of human thrombin preincubated for 10 mins followed by Ac-FVR-AMC substrate addition measured every 20s for 10 mins by fluorescence assay
Rattus norvegicus = species on record: Rattus norvegicus; test: Anti-thrombotic activity in Sprague-Dawley rat assessed as inhibition of arteriovenous thrombosis weight at 0.5 mg/ml relative to control; assay type: functional
[1] = Oral bioavailability in human at 10 to 400 mg administered as single dose measured after 24 hrs; assay type: ADME, organism-based; settings: in vivo

IC50 (Prothrombin) | bioavailability [1] | Structure (SMILES) | inhibition (INH) (Rattus norvegicus)
3.33 nM | – | Cc1ccnc(N(CCC(=O)O)C(=O)c2ccc3c(c2)nc(CNc2ccc(C(=N)N)cc2F)n3C)c1 | –
14.6 nM | – | Cn1c(CNc2ccc(C(=N)N)cc2F)nc2cc(C(=O)N(CCC(=O)O)c3ccc(F)c(F)c3)ccc21 | –
2.26 nM | – | Cc1cccc(N(CCC(=O)O)C(=O)c2ccc3c(c2)nc(CNc2ccc(C(=N)N)cc2F)n3C)c1 | –
3.35 nM | – | Cc1ccc(C)c(N(CCC(=O)O)C(=O)c2ccc3c(c2)nc(CNc2ccc(C(=N)N)cc2F)n3C)c1 | –
3.7 nM | – | Cc1cc(C)cc(N(CCC(=O)O)C(=O)c2ccc3c(c2)nc(CNc2ccc(C(=N)N)cc2F)n3C)c1 | –
0.84 nM | – | Cn1c(CNc2ccc(C(=N)N)cc2F)nc2cc(C(=O)N(CCC(=O)O)c3ccc(F)cc3F)ccc21 | –
12.8 nM | – | Cc1cccc(C)c1N(CCC(=O)O)C(=O)c1ccc2c(c1)nc(CNc1ccc(C(=N)N)cc1F)n2C | –
1.18 nM | – | Cn1c(CNc2ccc(C(=N)N)cc2F)nc2cc(C(=O)N(CCC(=O)O)c3cc(F)cc(F)c3)ccc21 | –
1.54 nM | – | Cc1cccc(N(CCC(=O)O)C(=O)c2ccc3c(c2)nc(CNc2ccc(C(=N)N)cc2F)n3C)c1C | 84.24%
1.42 nM | – | Cc1cccc(N(CCC(=O)O)C(=O)c2ccc3c(c2)nc(CNc2ccc(C(=N)N)cc2F)n3C)n1 | 84.57%
3.2 nM | – | Cc1cc(N(CCC(=O)O)C(=O)c2ccc3c(c2)nc(CNc2ccc(C(=N)N)cc2F)n3C)ccc1F | –
– | 6.5% | Cn1c(CNc2ccc(C(=N)N)cc2)nc2cc(C(=O)N(CCC(=O)O)c3ccccn3)ccc21 [DABIGATRAN] | 85.07%
